The results in this text go back to patent publication US20030049600A1, “STEALTH VIRUS DETECTION IN THE CHRONIC FATIGUE SYNDROME” (priority 1991, published 2003).

The subject of this assay is fibroblasts. Put plainly: Toxic effect on cultured fibroblasts, mimic of stealth virus culture toxicity. In kind it is cell-based. The note with it: 5 nM. The source says:
A lack of regular refeeding of the cultures can result in a tendency for the CPE to abort and not to progress. This effect is not seen with CMV infected cultures. In unfed stealth virus cultures and even with regular refeeding, one can observe a toxic effect on many of the remaining cells. Culture cells appear to lose a degree of vitality and become duller in appearance compared to control cultures. The fibroblasts can assume somewhat of a pavement appearance, instead of the elongated shape.

Consider `C=C1[C@@H](O)[C@@H]2O[C@]3(CC[C@H](/C=C/[C@@H](C)[C@@H]4CC(C)=C[C@@]5(O[C@H](C[C@@](C)(O)C(=O)O)CC[C@H]5O)O4)O3)CC[C@H]2O[C@@H]1[C@@H](O)C[C@H](C)[C@H]1O[C@@]2(CCCCO2)CC[C@H]1C` [okadaic acid], for which the “toxic effect on culture cells (loss of vitality, duller, pavement appearance)” value was “Some of these changes can be mimicked”.
